Experiments:
Format in all cases: in vivo, C57BL/6 mice
kidney [1] = experiment: Doxorubicin induced nephrotoxicity model in mice; conditions: doxorubicin 10 mg/kg single iv dose; 72 hours
Method: Female C57BL/6 mice were injected intravenously with a single dose of (10 mg/kg) doxorubicin. The mice were sacrificed after 72 hours. The development of glumerular and tubulointerstitial injury after doxorubicin and doxorubicin+Captisol was evaluated by means of renal histology. Paraffin sections of […] were cut and stained with H&E and periodic acid Schiff (PAS). They were examined by light microscopy and scored in a blinded fashion. Thirty glomeruli and neighboring tubules were scored at superficial cortes (near the surface of the capsule). One hundred glomeruli and neighboring tubules were scored at the level of deep renal cortex and around the outer strips of the outer medulla.

kidney [2] = experiment: Iohexyl induced nephrotoxicity in mildly renal compromised mice; conditions: iohexyl 1.5 g/kg iv once, alone, 24 hrs
Method: Iohexyl is nephrotoxic in humans and can produce acute renal failure in renally compromised patients. Therefore, the nephroprotective effects of sulfobutyl ethyl β cyclodextrin (SBE-βCD) in a contrast agent induced nephropathy model involving mildly renal compromised mice was evaluated. […] In order to produce mildly renal compromised mice, female C57BL/6 mice were injected with nitric oxide synthase inhibitor L-NAME (L arginine methyl ester) 10 mg/kg and prostaglandin synthesis inhibitor Indomethacin 10 mg/kg, ip., 15-20 min before injecting of iohexyl. The mice were administered a single bolus intravenous injections of iohexyl 1.5 g/kg (N=4) or iohexyl 1.5 g/kg+SBE-βCD 1.3 g/kg (N=4), or iohexyl 1.5 g/kg+SBE-βCD […] administered 30 minutes before, concurrently, and 30 min after iohexyl injection (N=4) (Table 7). In both cases, the iohexyl to SBE-βCD molar ratio was 1:0.1 during the concurrent dose. […] Renal pathology was assessed by evaluating H&E sections of the kidney under a light microscope.
Paraffin sections of […] were cut and stained with H&E and periodic acid Schiff (PAS). They were examined by light microscopy and scored in a blinded fashion. At 40× magnification, five arbitrary fields in each section was assessed for the below mentioned parameters and scored blindly according to the criteria mentioned. A total of 4 sections were analyzed per kidney.

kidney [3] = experiment: Gentamicin induced nephrotoxicity in mice; conditions: 10 consecutive days
Method: These doses however, produce nephrotoxicity in humans. Therefore, nephroprotective effects of SBE-βCD in mildly renal compromised mice was evaluated. […] In order to produce mildly renal compromised mice, animals were injected with L-NAME (L arginine methyl ester) 10 mg/kg and Indomethacin 10 mg/kg, ip., 15-20 min before the first injection of gentamicin. Female C57BL/6 mice were administered bolus intravenous injections for ten consecutive days with a dose of 4.0 mg/kg gentamicin (N=4) or gentamicin 4.0 mg/kg+SBE-βCD 19.2 mg/kg (N=4), or gentamicin 4.0 mg/kg+SBE-βCD 38.4 mg/kg (N=4). Gentamicin to SBE-βCD molar ratios were 1:1 and 1:2 respectively. Animals were sacrificed after 48 hrs after the last injection. Renal pathology was assessed by evaluating H&E sections of the kidney under light microscope.
Paraffin sections of […] were cut and stained with H&E and periodic acid Schiff (PAS). They were examined by light microscopy and scored in a blinded fashion. Five arbitrary fields at 40× magnification in each sections was assessed for the below mentioned parameters and scored according to the criteria mentioned

kidney [4] = experiment: Acyclovir induced nephrotoxicity in mildly renal compromised mice; conditions: acyclovir 10 or 30 mg/kg IV, 10 consecutive days, alone
Method: These doses however, produce nephrotoxicity in humans. Therefore, the nephroprotective effects of sulfobutylether β cyclodextrin (SBEβCD) in mildly renal compromised mice was evaluated. […] In order to produce mildly renal compromised mice, animals were injected with L-NAME (L arginine methyl ester) 10 mg/kg and Indomethacin 10 mg/kg, ip., 15-20 min before the first injection of acyclovir. Female C57BL/6 mice were administered bolus intravenous injections for ten consecutive days with a dose of 10 mg/kg acyclovir (N=3) or acyclovir 10 mg/kg+SBEβCD 173 mg/kg (N=3), or 30 mg/kg acyclovir (N=3) or acyclovir 30 mg/kg+SBEβCD 520 mg/kg (N=3) (Table 6). In both cases the acyclovir to SBEβCD molar ratio was 1:2. Animals were sacrificed after 48 hrs after the last injection. Renal pathology was assessed by evaluating H&E sections of the kidney under a light microscope. Paraffin sections of […] were cut and stained with H&E and periodic acid Schiff (PAS). They were examined by light microscopy and scored in a blinded fashion. Five arbitratary fields at 40× magnification in each sections was assessed according to the below mentioned parameters and scored according to the criteria mentioned.

Molecule: COc1cccc2c1C(=O)c1c(O)c3c(c(O)c1C2=O)C[C@@](O)(C(=O)CO)C[C@@H]3O[C@H]1C[C@H](N)[C@H](O)[C@H](C)O1 [doxorubicin]
- renal histology (kidney [1]): tubular casts, abundant dilated tubules and moderate loss of brush border in the some proximal tubules

Molecule: CC(=O)N(CC(O)CO)c1c(I)c(C(=O)NCC(O)CO)c(I)c(C(=O)NCC(O)CO)c1I (centres unmarked) [Iohexyl, iohexyl]
- renal histology (kidney [2]): moderate to severe signs of tubulopathy

Molecule: gentamicin
- renal histology (kidney [3]; healthy mice, gentamicin 4 mg/kg intravenously): no noticeable changes in the tubular cells in the healthy kidney
- renal histology (kidney [3]; mild renal compromised mice (L-NAME + Indomethacin), gentamicin 4 mg/kg iv): extensive tubular vacuolization and necrosis in the renal cortex

Molecule: Nc1nc2c(ncn2COCCO)c(=O)[nH]1 [Acyclovir, acyclovir]
- renal histology (kidney [4]): moderate to severe signs of tubulopathy

From patent US8574551B2, “Compositions useful for reducing nephrotoxicity and methods of use thereof” (Verrow Pharmaceuticals, Inc., priority 2005, dated 2013)
